Experimental data taken from patent US20040072871A1, “Novel thiophene derivatives, their process of preparation and the pharmaceutical compositions which comprise them” (priority 2002, published 2004).
Where a name gives a salt, the structure may show the parent alone.

What was measured:
MMP-12 = MMP-12 (Homo sapiens, UniProt P39900); experiment: In vitro inhibition of proteolysis of fluorogenic peptide substrate FP-1 by MMP-12; type: biochemical; conditions: substrate FP-1 10 μM, 20 minutes at ambient temperature, compounds tested 0.3 to 30 μM
Chain of MMP-12 (P39900 106-470): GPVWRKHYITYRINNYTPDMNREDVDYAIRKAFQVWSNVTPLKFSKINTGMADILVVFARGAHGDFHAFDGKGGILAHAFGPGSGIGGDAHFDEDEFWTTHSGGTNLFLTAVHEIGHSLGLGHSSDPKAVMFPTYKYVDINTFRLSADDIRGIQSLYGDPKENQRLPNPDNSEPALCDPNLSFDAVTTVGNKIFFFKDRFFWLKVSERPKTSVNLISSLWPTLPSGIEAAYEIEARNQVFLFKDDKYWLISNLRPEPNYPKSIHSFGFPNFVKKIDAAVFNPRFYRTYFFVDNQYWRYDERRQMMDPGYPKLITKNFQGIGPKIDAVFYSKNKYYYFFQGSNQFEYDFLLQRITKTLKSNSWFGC
Experimental: (§1) The inhibitory activity of the compounds of formula (I) with regard to metalloproteinase-12 is evaluated by testing the ability of the compounds of the invention to inhibit the proteolysis of a peptide substrate by MMP-12.
(§2) The inhibitory activity of a compound of formula (I) is expressed as IC50 value, which represents the concentration of inhibitor at which a degree of inhibition of the metalloproteinase of 50% is observed.
(§3) The reaction begins with the sequential addition of 41 μl of substrate FP-1 (final concentration of 10 μM) to a buffer solution of 50 mM of Tris-HCl and 10 mM of CaCl2, which comprises 5 mM of hydroxamic acid and 5 μl of the enzyme diluted in a 0.005% Brij-35 buffer solution. The microplates are incubated for 20 minutes at ambient temperature. The compounds of the invention are tested at concentrations varying from 0.3 to 30 μM.
(§4) The measurement of the amount of proteolysis of the peptide substrate is monitored by a measurement of absorbance at 405 nm using a microplate spectrophotometer, at ambient temperature. The IC50 values are calculated from curves in which the percentage of the catalytic activity relative to the control is represented on the […] and the concentration of inhibitor is represented on the Y axis.

MMP-13 = MMP-13 (Homo sapiens, UniProt P45452); experiment: MMP-12 test adapted to MMP-13; type: biochemical
Experimental: as §1, §2, §3, §4
The test described above for the inhibition of MMP-12 is adapted and used to determine the ability of the compounds of formula (I) to inhibit the metalloproteinases MMP-1, MMP-2, MMP-3, MMP-7, MMP-9, MMP-13 and MMP-14. […] More specifically, the compounds of the present invention generally show a selectivity with a factor of greater than 50 with respect to the metalloproteinases mentioned above, except towards MMP-13. Thus, the compounds of the present invention also show an inhibitory activity with regard to MMP-13, making it possible to also use the pharmaceutical compositions comprising one or more compounds of the invention in the treatment of pathologies related to activity of MMP-13. Mention may be made, among these pathologies, by way of indication and without implied limitation, of cancer, osetoporosis, osteoarthritis, arthritis, rheumatoid arthritis, atherosclerosis, multiple sclerosis, cardiac insufficiency, asthma and chronic obstructive pulmonary disease.

| Molecule | IC50 (MMP-12) [µM] | IC50 (MMP-13) [µM] |
| --- | --- | --- |
| 2-(4-{[(4-{4-[4-(2-Oxopropyl)-3-hydroxyphenyl]phenyl}thien-2-yl)carboxamido]methyl}phenyl)acetic acid [Example 119] | 0.13 | 0.78 |
| 2-[4-({[4-(4′-Benzoyl-4-biphenyl)thien-2-yl]carboxamido}-methyl)phenyl]acetic acid [Example 107] | 0.05 |  |
| 3-[4-({[4-(4-Trifluoromethoxyphenyl)thien-2-yl]carboxamido}-methyl)phenyl]propanoic acid [Example 63] | 0.49 | 3.8 |
| O=C(O)CC[C@@H]1CCC[C@@H](NC(=O)c2cc(-c3ccc(OC(F)(F)F)cc3)cs2)C1 (relative stereo) [Example 125, trans-3-(3-{[4-(4-Trifluoromethoxyphenyl)thien-2-yl]-carboxamido}cyclohexyl)propanoic acid] | 0.32 | 3.95 |
| O=C(NCCN1CCOCC1)c1cc(-c2ccc(-c3ccccc3)cc2)cs1 [Example 2, 4-(4-Biphenyl)-N-(2-morpholin-4-ylethyl)thiophene-2carboxamide] | 0.35 | 30 |
| O=C(NCCN1CCOCC1)c1cc(-c2ccc(-c3ccncc3)cc2)cs1 [Example 9, 4-[4-(Pyridin-4-yl)phenyl]-N-(2-morpholin-4-ylethyl)thiophene-2-carboxamide] | 0.105 | 1.5 |
| O=C(NCCN1CCOCC1)c1cc(-c2ccc(-c3cccnc3)cc2)cs1 [Example 11, 4-[4-(Pyridin-3yl)phenyl]-N-(2-morpholin-4-ylethyl)thiophene-2-carboxamide] | 0.91 | 4.8 |
| O=C(NCCN1CCOCC1)c1cc(-c2ccc(N3CCCC3)cc2)cs1 [Example 14, 4-[4-(Pyrrolidin-1-yl)phenyl]-N-(2-morpholin-4-ylethyl)thiophene-2-carboxamide] | 0.86 | 2.08 |
| O=C(NCCN1CCOCC1)c1cc(-c2ccc(C3CCCCC3)cc2)cs1 [Example 21, 4-[4-(Cyclohexyl)phenyl]-N-(2-morpholin-4-ylethyl)thiophene-2-carboxamide] | 0.46 | 11 |
| Cn1ccc(-c2ccc(-c3csc(C(=O)NCCN4CCOCC4)c3)cc2)n1 [Example 22, 4-[4-(1-Methyl-1H-pyrazol-3-yl)phenyl]-N-(2-morpholin-4-ylethyl)thiophene-2-carboxamide] | 0.915 | 11.6 |
| O=C(O)CCc1ccc(NC(=O)c2cc(-c3ccc(OC(F)(F)F)cc3)cs2)nc1 [Example 27] | 0.845 | 6.1 |
| O=C(NC[C@H]1CC[C@H](C(=O)O)CC1)c1cc(-c2ccc(OC(F)(F)F)cc2)cs1 [Example 35, trans-4-({[4-(4-Trifluoromethoxyphenyl)thien-2-yl]-carboxamido}methyl)cyclohexanecarboxylic acid] | 0.405 | 3.45 |
| O=C(O)Cc1ccc(CNC(=O)c2cc(-c3ccc(OC(F)(F)F)cc3)cs2)cc1 [Example 37, 2-[4-({[4-(4-Trifluoromethoxyphenyl)thien-2-yl]carboxamido}-methyl)phenyl]acetic acid] | 0.427 | 4.53 |
| O=C(O)Cc1cccc(CNC(=O)c2cc(-c3ccc(OC(F)(F)F)cc3)cs2)c1 [Example 41, 2-[3-({[4-(4-Trifluoromethoxyphenyl)thien-2-yl]carboxamido}-methyl)phenyl]acetic acid] | 0.883 | 5.17 |
| O=C(NCC1CCC(C(=O)O)CC1)c1cc(-c2ccc(OC(F)(F)F)cc2)cs1 (stereo not drawn) [Example 43, 4-({[4-(4-Trifluoromethoxyphenyl)thien-2-yl]carboxamido}-methyl)cyclohexanecarboxylic acid] | 0.715 | 5.37 |
| O=C(O)c1ccc(CNC(=O)c2cc(-c3ccc(OC(F)(F)F)cc3)cs2)nc1 [Example 45, 6-({[4-(4-Trifluoromethoxyphenyl)thien-2-yl]carboxamido}-methyl)nicotinic acid] | 0.92 | 2.85 |
| O=C(O)c1ccc(CNC(=O)c2cc(-c3ccc(OC(F)(F)F)cc3)cs2)cc1 [Example 47, 4-({[4-(4-Trifluoromethoxyphenyl)thien-2-yl]carboxamido}-methyl)benzoic acid] | 0.436 | 3.59 |

| Molecule | IC50 (MMP-12) [µM] | IC50 (MMP-13) [µM] |
| --- | --- | --- |
| O=C(O)Cc1ccc(NC(=O)c2cc(-c3ccc(OC(F)(F)F)cc3)cs2)cc1 [Example 55, (4-{[4-(4-Trifluoromethoxyphenyl)thien-2-yl]carboxamido}-phenyl)acetic acid] | 0.615 | 15.8 |
| O=C(O)CCc1cccc(CNC(=O)c2cc(-c3ccc(OC(F)(F)F)cc3)cs2)c1 [Example 65, 3-[3-({[4-(4-Trifluoromethoxyphenyl)thien-2-yl]carboxamido}-methyl)phenyl]propanoic acid] | 0.685 | 2.9 |
| O=C(NC[C@H]1CC[C@H](C(=O)O)CC1)c1cc(-c2ccc(-c3ccncc3)cc2)cs1 [Example 70, 4-[({4-[4-(Pyridinyl)phenyl]thien-2-yl}carboxamido)methyl]cyclo-hexanecarboxylic acid hydrochloride] | 0.022 | 0.285 |
| CC(=O)c1ccc(-c2ccc(-c3csc(C(=O)NCCN4CCOCC4)c3)cc2)cc1 [Example 72, 4-[4-(4-Acetylphenyl)phenyl]-N-(2-morpholin-4-ylethyl)thiophene-2-carboxamide] | 0.057 | 0.13 |
| O=C(NCCN1CCOCC1)c1cc(-c2ccc(-c3ccc(F)cc3)cc2)cs1 [Example 73, 4-[4-(4-Fluorophenyl)phenyl]-N-(2-morpholin-4-ylethyl)thiophene-2-carboxamide] | 0.355 | 0.4 |
| O=C(NCCN1CCOCC1)c1cc(-c2ccc(-c3cccc(O)c3)cc2)cs1 [Example 74, 4-[4-(3-Hydroxyphenyl)phenyl]-N-(2-morpholin-4-ylethyl)thiophene-2-carboxamide] | 0.465 | 6.25 |
| CS(=O)(=O)c1ccc(-c2ccc(-c3csc(C(=O)NCCN4CCOCC4)c3)cc2)cc1 [Example 75, 4-[4-(4-Methylsulphonylphenyl)phenyl]-N-(2-morpholin-4-ylethyl)thiophene2-carboxamide] | 0.34 | 0.27 |
| CC(=O)c1cccc(-c2ccc(-c3csc(C(=O)NCCN4CCOCC4)c3)cc2)c1 [Example 76] | 0.48 | 3.7 |
| O=C(O)Cc1ccc(CNC(=O)c2cc(-c3ccc(Oc4ccccc4)cc3)cs2)cc1 [Example 81, 2-[4-({[4-(4-Phenoxyphenyl)thien-2-yl]carboxamido}methyl)phenyl]-acetic acid] | 0.5 | 3.7 |
| O=C(NCc1cc(F)c(O)c(F)c1)c1cc(-c2ccc(OC(F)(F)F)cc2)cs1 [Example 84, N-(3,5-Difluoro-4-hydroxybenzyl)-4-(4-trifluoromethoxyphenyl)-thiophene-2-carboxamide] | 0.56 | 3.06 |
| O=C(NC[C@H]1CC[C@H](C(=O)O)CC1)c1cc(-c2ccc(OC(F)(F)F)cc2)cs1 [Example 99, trans-4-({[4-(4-Trifluoromethoxyphenyl)thien-2-yl]carboxamido}-methyl)cyclohexanecarboxylic acid, Sodium Salt] | 0.45 | 5 |
| O=C(NCCN1CCOCC1)c1cc(-c2ccc(-c3cccc(CO)c3)cc2)cs1 [Example 101, 4-{4-[3-(Hydroxymethyl)phenyl]phenyl}-N-(2-morpholin-4-ylethyl)-thiophene-2-carboxamide] | 0.99 | 3.7 |
| CCC(=O)c1ccc(-c2ccc(-c3csc(C(=O)NCc4ccc(CC(=O)O)cc4)c3)cc2)cc1 [Example 103, 2-[4-({[4-(4′-Propionyl-4-biphenyl)thien-2-yl]carboxamido}-methyl)phenyl]acetic acid] | 0.05 |  |
| O=C(O)Cc1ccc(CNC(=O)c2cc(-c3ccc(-c4ccc(C(=O)C5CC5)cc4)cc3)cs2)cc1 [Example 105, 2-[4-({[4-(4′-Cyclopropylcarbonyl-4-biphenyl)thien-2-yl]-carboxamido}methyl)phenyl]acetic acid] | 0.05 |  |
| N#CCc1ccc(-c2ccc(-c3csc(C(=O)NCc4ccc(CC(=O)O)cc4)c3)cc2)cc1 [Example 109, 2-[4-({[4-(4′-Cyanomethyl-4-biphenyl)thien-2-yl]carboxamido}-methyl)phenyl]acetic acid] | 0.165 | 0.4 |
| CC(=O)c1ccc(-c2ccc(-c3csc(C(=O)NCc4ccc(CC(=O)O)cc4)c3)cc2)cc1O [Example 113] | 0.14 |  |
| O=C(NC1CCCCC1CO)c1cc(-c2ccc(OC(F)(F)F)cc2)cs1 (stereo not drawn) [Example 121, N-[2-(Hydroxymethyl)cyclohexyl]-4-(4-trifluoromethoxyphenyl)-thiophene-2-carboxamide] | 0.72 |  |
